One block for each compound: values may come before it.
Tests used:
[1] = Solubility of the drug in solvent / antisolvent; type: physicochemical
From the text: The solute employed in the process may be any material for which a suitable solvent and antisolvent may be found. The suitability of a solvent/antisolvent system may be evaluated by comparing the solubility of the solute in the solvent with the solubility of the solute in the antisolvent. For example, the solute may have a first solubility in the solvent and a second solubility in the antisolvent, where a ratio of the first solubility to the second solubility is at least about 10:1, or at least about 100:1. A higher ratio may permit a higher particle yield to be achieved for a given concentration of solute in the solvent. Accordingly, the ratio may also be at least about 200:1 or at least about 400:1, but is typically no higher than about 800:1. As would be recognized by one of ordinary skill in the art, the solubility of solute in a given solvent may be represented in terms of milligrams of solute per milliliter of the solvent (mg/mL), and may be determined by HPLC or gravimetric analysis.

[2] = Particle size and morphology of drug particles from antisolvent sonocrystallization (optical microscope, SEM, dynamic light scattering); type: physicochemical
From the text: The application of ultrasound to the induction of nucleation of drug crystals is presented in the following examples. The apparatus shown in FIG. 1 was employed for all of the experiments, using a titanium-aluminum alloy flow-through ultrasonic horn (Sonics & Materials VCX750) having a resonance frequency of 20 kHz, a 1 cm^2 tip and an outlet diameter of 4 mm. Horn intensities were calibrated by calorimetry with water. A crystallization tube having an outer diameter (OD) of 13 mm was used in each experiment. Each has different solubility characteristics and consequently its own solvent/antisolvent system. Fine particles of several drug materials, including aspirin (acetylsalicylic acid), acetaminophen (also called paracetamol, the active ingredient in Tylenol), and folic acid (vitamin B9), were prepared by antisolvent sonocrystallization.
Particles were imaged using a Canon PC1015 digital camera attached to a Zeiss Axioskop optical/fluorescence microscope with polarization analyzer or with a Hitachi 4700 SEM. Particle size distributions were measured by dynamic light scattering when possible.

concentration of saturated ethanol solution ([1]; ethanol): about 400 mg/mL
SMILES: CC(=O)Oc1ccccc1C(=O)O [aspirin, acetylsalicylic acid]

crystal diameter ([2]; 20% aqueous ammonium hydroxide solvent, acetone antisolvent, by SEM (FIGS. 8A-8B)): about 100 nm | particle morphology (optical microscope) ([2]; saturated sodium bicarbonate solution, H2SO4 antisolvent, FIGS. 7C-7D): large needles | particle size (optical microscope) ([2]; saturated sodium bicarbonate solution, HCl antisolvent, FIGS. 7A-7B): too small to resolve optically | solubility in acetone ([1]; acetone): negligible | solubility in base ([1]; base (as the folate ion)): dissolves readily | solubility in water ([1]; neutral to moderately acidic water): very nearly insoluble | solubility in water ([1]; very low pH): quite soluble
SMILES: Nc1nc2ncc(CNc3ccc(C(=O)N[C@@H](CCC(=O)O)C(=O)O)cc3)nc2c(=O)[nH]1 [Folic acid, folic acid]

Resultant particle morphology ([2]; antisolvent sonocrystallization, 20 kHz, 15 W, solvent/antisolvent per experiment (Tables 1, 2)): platelike | crystal length in the largest dimension ([2]; ethanol solution, hexanes as antisolvent, FIGS. 6A and 6B): a few
SMILES: CC(=O)Nc1ccc(O)cc1 [acetaminophen]

— patent US9855538B2, “Ultrasonic method and apparatus for producing particles having a controlled size distribution” (The Board of Trustees of the University of Illinois, priority 2013, dated 2018)
